From ChEMBL document CHEMBL4385667, “Phosphoramidate derivates as controlled-release prodrugs of l-Dopa” (Bioorg Med Chem Lett, 2019)

assay: Stability in pH 7.4 buffer assessed as half life at 37 degC by 31P NMR analysis; format: physicochemical; settings: buffer

Row | Structure (SMILES) | t1/2 [h]
1 | CC(=O)N[C@@H](COP(=O)([O-])N[C@@H](Cc1ccc(O)c(O)c1)C(=O)[O-])C(=O)[O-].[K+].[K+].[K+] | 9.9

same assay, conditions: pH 7.4 buffer

Row | Structure (SMILES) | half-life [h]
2 | O=C([O-])CCOP(=O)([O-])N[C@@H](Cc1ccc(O)c(O)c1)C(=O)[O-].[K+].[K+].[K+] | < 0.0833
3 | O=C([O-])CCCOP(=O)([O-])N[C@@H](Cc1ccc(O)c(O)c1)C(=O)[O-].[K+].[K+].[K+] | > 8
4 | CC(=O)N[C@H](C(=O)[O-])[C@@H](C)OP(=O)([O-])N[C@@H](Cc1ccc(O)c(O)c1)C(=O)[O-].[K+].[K+].[K+] | 0.92
5 | CCOC(=O)CCOP(=O)([O-])N[C@@H](Cc1ccc(O)c(O)c1)C(=O)[O-].[K+].[K+] | > 8
6 | CC(=O)N[C@@H](COP(=O)([O-])NCCc1ccc(O)c(O)c1)C(=O)[O-].[K+].[K+] | 12.1
7 | CCOC(=O)[C@@H](NC(C)=O)[C@@H](C)OP(=O)([O-])N[C@@H](Cc1ccc(O)c(O)c1)C(=O)[O-].[K+].[K+] | > 8
8 | CCOC(=O)[C@H](COP(=O)([O-])N[C@@H](Cc1ccc(O)c(O)c1)C(=O)[O-])NC(C)=O.[K+].[K+] | > 8
9 | CC(=O)NCCOP(=O)([O-])N[C@@H](Cc1ccc(O)c(O)c1)C(=O)[O-].[K+].[K+] | > 8

assay: Stability in pH 7.4 buffer assessed as rate constant of compound hydrolysis at 37 degC by 31P NMR analysis; format: physicochemical; settings: not given

Row | Structure (SMILES) | K
10 | O=C([O-])CCOP(=O)([O-])N[C@@H](Cc1ccc(O)c(O)c1)C(=O)[O-].[K+].[K+].[K+] | Unstable
11 | O=C([O-])CCCOP(=O)([O-])N[C@@H](Cc1ccc(O)c(O)c1)C(=O)[O-].[K+].[K+].[K+] | Stable
12 | CC(=O)N[C@H](C(=O)[O-])[C@@H](C)OP(=O)([O-])N[C@@H](Cc1ccc(O)c(O)c1)C(=O)[O-].[K+].[K+].[K+] | 7.2 ×10⁻¹ /hr
13 | CCOC(=O)CCOP(=O)([O-])N[C@@H](Cc1ccc(O)c(O)c1)C(=O)[O-].[K+].[K+] | Stable
14 | CC(=O)N[C@@H](COP(=O)([O-])NCCc1ccc(O)c(O)c1)C(=O)[O-].[K+].[K+] | 5.7 ×10⁻² /hr
15 | CCOC(=O)[C@@H](NC(C)=O)[C@@H](C)OP(=O)([O-])N[C@@H](Cc1ccc(O)c(O)c1)C(=O)[O-].[K+].[K+] | Stable
16 | CCOC(=O)[C@H](COP(=O)([O-])N[C@@H](Cc1ccc(O)c(O)c1)C(=O)[O-])NC(C)=O.[K+].[K+] | Stable
17 | CC(=O)N[C@@H](COP(=O)([O-])N[C@@H](Cc1ccc(O)c(O)c1)C(=O)[O-])C(=O)[O-].[K+].[K+].[K+] | 7 ×10⁻² /hr
18 | CC(=O)NCCOP(=O)([O-])N[C@@H](Cc1ccc(O)c(O)c1)C(=O)[O-].[K+].[K+] | Stable

assay: Stability in pH 3 buffer assessed as half life at 37 degC by 31P NMR analysis; format: physicochemical; settings: not given

Row | Structure (SMILES) | half-life [h]
19 | O=C([O-])CCOP(=O)([O-])N[C@@H](Cc1ccc(O)c(O)c1)C(=O)[O-].[K+].[K+].[K+] | < 0.0833
20 | O=C([O-])CCCOP(=O)([O-])N[C@@H](Cc1ccc(O)c(O)c1)C(=O)[O-].[K+].[K+].[K+] | 1.2
21 | CC(=O)N[C@H](C(=O)[O-])[C@@H](C)OP(=O)([O-])N[C@@H](Cc1ccc(O)c(O)c1)C(=O)[O-].[K+].[K+].[K+] | < 0.0833
22 | CCOC(=O)CCOP(=O)([O-])N[C@@H](Cc1ccc(O)c(O)c1)C(=O)[O-].[K+].[K+] | 1.7
23 | CC(=O)N[C@@H](COP(=O)([O-])NCCc1ccc(O)c(O)c1)C(=O)[O-].[K+].[K+] | < 0.0833
24 | CCOC(=O)[C@@H](NC(C)=O)[C@@H](C)OP(=O)([O-])N[C@@H](Cc1ccc(O)c(O)c1)C(=O)[O-].[K+].[K+] | 5.5
25 | CCOC(=O)[C@H](COP(=O)([O-])N[C@@H](Cc1ccc(O)c(O)c1)C(=O)[O-])NC(C)=O.[K+].[K+] | 2.7
26 | CC(=O)N[C@@H](COP(=O)([O-])N[C@@H](Cc1ccc(O)c(O)c1)C(=O)[O-])C(=O)[O-].[K+].[K+].[K+] | < 0.0833
27 | CC(=O)NCCOP(=O)([O-])N[C@@H](Cc1ccc(O)c(O)c1)C(=O)[O-].[K+].[K+] | 1.7

assay: Stability in pH 3 buffer assessed as rate constant of compound hydrolysis at 37 degC by 31P NMR analysis; format: physicochemical; settings: not given

Row | Structure (SMILES) | K
28 | O=C([O-])CCOP(=O)([O-])N[C@@H](Cc1ccc(O)c(O)c1)C(=O)[O-].[K+].[K+].[K+] | Unstable
29 | O=C([O-])CCCOP(=O)([O-])N[C@@H](Cc1ccc(O)c(O)c1)C(=O)[O-].[K+].[K+].[K+] | 5.4 ×10⁻¹ /hr
30 | CC(=O)N[C@H](C(=O)[O-])[C@@H](C)OP(=O)([O-])N[C@@H](Cc1ccc(O)c(O)c1)C(=O)[O-].[K+].[K+].[K+] | Unstable
31 | CCOC(=O)CCOP(=O)([O-])N[C@@H](Cc1ccc(O)c(O)c1)C(=O)[O-].[K+].[K+] | 4 ×10⁻¹ /hr
32 | CC(=O)N[C@@H](COP(=O)([O-])NCCc1ccc(O)c(O)c1)C(=O)[O-].[K+].[K+] | Unstable
33 | CCOC(=O)[C@@H](NC(C)=O)[C@@H](C)OP(=O)([O-])N[C@@H](Cc1ccc(O)c(O)c1)C(=O)[O-].[K+].[K+] | 1.2 ×10⁻¹ /hr
34 | CCOC(=O)[C@H](COP(=O)([O-])N[C@@H](Cc1ccc(O)c(O)c1)C(=O)[O-])NC(C)=O.[K+].[K+] | 2.5 ×10⁻¹ /hr
35 | CC(=O)N[C@@H](COP(=O)([O-])N[C@@H](Cc1ccc(O)c(O)c1)C(=O)[O-])C(=O)[O-].[K+].[K+].[K+] | Unstable
36 | CC(=O)NCCOP(=O)([O-])N[C@@H](Cc1ccc(O)c(O)c1)C(=O)[O-].[K+].[K+] | 4 ×10⁻¹ /hr

assay: Stability in pH 7.4 buffer assessed as compound hydrolysis measured over 8 hrs at 37 degC by 31P NMR analysis; format: physicochemical; settings: pH 7.4, 8 h

Row | Structure (SMILES) | Stability
37 | O=C([O-])CCCOP(=O)([O-])N[C@@H](Cc1ccc(O)c(O)c1)C(=O)[O-].[K+].[K+].[K+] | Stable
38 | CCOC(=O)CCOP(=O)([O-])N[C@@H](Cc1ccc(O)c(O)c1)C(=O)[O-].[K+].[K+] | Stable
39 | CCOC(=O)[C@@H](NC(C)=O)[C@@H](C)OP(=O)([O-])N[C@@H](Cc1ccc(O)c(O)c1)C(=O)[O-].[K+].[K+] | Stable
40 | CCOC(=O)[C@H](COP(=O)([O-])N[C@@H](Cc1ccc(O)c(O)c1)C(=O)[O-])NC(C)=O.[K+].[K+] | Stable
41 | CC(=O)NCCOP(=O)([O-])N[C@@H](Cc1ccc(O)c(O)c1)C(=O)[O-].[K+].[K+] | Stable
